Measurements as given in article PMC5406237 (Chemical research in toxicology, 2010).
Like-named read-outs stand apart in the source and are kept apart here.

What was measured:
[1] = biological target: CYP2C9 present in the human liver microsomes (Homo sapiens, UniProt P11712); assay type: biochemical; conditions: for Ki fold above the Km for S-warfarin: human liver microsomes, marker Km
plasma proteins = conditions: cited from earlier work
recombinant CYP2C9*1 [2] = biological target: T1, recombinant CYP2C9*1 (Homo sapiens, UniProt P11712); assay: Steady-state inhibition of S-warfarin metabolism by recombinant CYP2C9; assay type: biochemical
Recombinant CYP2C9 = Recombinant CYP2C9 (Homo sapiens, UniProt P11712); assay: P450-Glo IC50 screen of recombinant CYP2C9 activity; assay type: biochemical; conditions: relative to racemic warfarin IC50
CYP2C9 = conditions: binds and inhibits CYP2C9, not metabolized; cited from earlier work
recombinant CYP2C9*1 [3] = biological target: T1, recombinant CYP2C9*1
[4] = biological target: T2, pooled human liver microsomes (Homo sapiens, UniProt P11712)
[5] = biological target: T2, pooled human liver microsomes; conditions: 7-hydroxywarfarin formation
recombinant CYP2C9*1 [6] = biological target: T1, recombinant CYP2C9*1; assay: Uninhibited steady-state metabolism of S-warfarin by recombinant CYP2C9; conditions: S-7-hydroxywarfarin formation
[7] = 2.0 mg/mL microsomal protein, marker 7-hydroxywarfarin formation
[8] = results based on S-6-hydroxywarfarin formation

CYP2C9 present in the human liver microsomes, sequence (P11712 whole entry): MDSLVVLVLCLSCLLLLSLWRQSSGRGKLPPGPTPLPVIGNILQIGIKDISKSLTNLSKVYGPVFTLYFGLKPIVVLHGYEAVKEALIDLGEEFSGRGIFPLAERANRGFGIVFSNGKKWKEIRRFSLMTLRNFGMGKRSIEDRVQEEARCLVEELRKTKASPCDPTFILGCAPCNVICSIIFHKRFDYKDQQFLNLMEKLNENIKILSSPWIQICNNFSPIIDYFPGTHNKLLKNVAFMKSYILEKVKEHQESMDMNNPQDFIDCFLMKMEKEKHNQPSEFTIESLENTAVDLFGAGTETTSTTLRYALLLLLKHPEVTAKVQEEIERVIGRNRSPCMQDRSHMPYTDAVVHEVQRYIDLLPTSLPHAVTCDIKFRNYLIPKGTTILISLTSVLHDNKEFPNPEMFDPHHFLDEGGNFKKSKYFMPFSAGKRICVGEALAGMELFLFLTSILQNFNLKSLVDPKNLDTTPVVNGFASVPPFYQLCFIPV
T2 sequence (P11712 whole entry): as above
Recombinant CYP2C9, sequence (P11712 whole entry): as above

CC(=O)CC(c1ccc(O)cc1)c1c(O)c2ccccc2oc1=O (centres unmarked) [4′OHWAR, 4′-hydroxywarfarin]
mechanism [1, 7]: competitive
Ki fold above the Km for S-warfarin [1]: approximately 3 fold
affinity for human plasma albumin (plasma proteins): comparable to that of warfarin

CC(=O)CC(c1ccccc1)c1c(O)c2cc(O)ccc2oc1=O (centres unmarked) [6OHWAR, 6-hydroxywarfarin]
inhibition of S-warfarin metabolism (recombinant CYP2C9*1 [2]; up to 170 μM inhibitor): no inhibition
mechanism [1, 7]: competitive
Ki fold above the Km for S-warfarin [1]: approximately 32 fold
fold lower affinity for plasma proteins than warfarin (plasma proteins): 3- to 4 fold

CC(=O)CC(c1ccccc1)c1c(O)c2ccc(O)cc2oc1=O (centres unmarked) [7OHWAR, 7-hydroxywarfarin]
mechanism (recombinant CYP2C9*1 [2]; [8]): competitive
Ki fold above the Km for S-warfarin [1]: 8.5 fold
mechanism [1, 8]: competitive
fold lower affinity for plasma proteins than warfarin (plasma proteins): 3- to 4 fold
IC50 fold higher than that observed for warfarin (Recombinant CYP2C9): approximately 8 fold

CC(=O)CC(c1ccccc1)c1c(O)c2cccc(O)c2oc1=O (centres unmarked) [8OHWAR, 8-hydroxywarfarin]
mechanism [1, 7]: competitive
Ki fold above the Km for S-warfarin [1]: approximately 3 fold
fold lower affinity for plasma proteins than warfarin (plasma proteins): 3- to 4 fold

CC(=O)C(O)C(c1ccccc1)c1c(O)c2ccccc2oc1=O (centres unmarked) [10OHWAR, 10-hydroxywarfarin]
affinity fold higher than S-warfarin (recombinant CYP2C9*1 [2]; abstract statement): approximately 3 fold
Ki fold lower than the Km for S-warfarin (recombinant CYP2C9*1 [2]; recombinant CYP2C9): approximately 2.5 fold
Ki fold lower than the observed microsomal Km for S-warfarin [1]: 2.4 fold
mechanism [1, 7]: competitive

CC(=O)C[C@@H](c1ccccc1)c1c(O)c2ccccc2oc1=O [S-warfarin]
Km (recombinant CYP2C9*1 [3]): 3.3 µM
Km [4]: 7.5 µM
Km [5]: 5.2 µM
Vmax [5]: 173 pmol/min/mg protein
Km (recombinant CYP2C9*1 [6]): 2.3 µM
Vmax (recombinant CYP2C9*1 [6]): 68 pmol/min/nmol P450
